From patent publication US9708334B2, “Substituted 2,4,5,6-tetrahydropyrrolo[3,4-c]pyrazole and 4,5,6,7-tetrahydro-2H-pyrazolo[4,3-c]pyridine compounds as GlyT1 inhibitors” (DART NEUROSCIENCE (CAYMAN) LTD., priority 2014, dated 2017)

What follows are compounds tested against T1, GlyT1 (Homo sapiens, UniProt P48067) (assay: Glycine Transporter 1 (GlyT1) uptake assay, scintillation proximity assay of [14C]-glycine uptake). Conditions: SPA, four parameter logistic fit, read-out: GlyT1 (pIC50) (converted).
T1 construct: expressed in transfected cells
T1 sequence (P48067 1-706): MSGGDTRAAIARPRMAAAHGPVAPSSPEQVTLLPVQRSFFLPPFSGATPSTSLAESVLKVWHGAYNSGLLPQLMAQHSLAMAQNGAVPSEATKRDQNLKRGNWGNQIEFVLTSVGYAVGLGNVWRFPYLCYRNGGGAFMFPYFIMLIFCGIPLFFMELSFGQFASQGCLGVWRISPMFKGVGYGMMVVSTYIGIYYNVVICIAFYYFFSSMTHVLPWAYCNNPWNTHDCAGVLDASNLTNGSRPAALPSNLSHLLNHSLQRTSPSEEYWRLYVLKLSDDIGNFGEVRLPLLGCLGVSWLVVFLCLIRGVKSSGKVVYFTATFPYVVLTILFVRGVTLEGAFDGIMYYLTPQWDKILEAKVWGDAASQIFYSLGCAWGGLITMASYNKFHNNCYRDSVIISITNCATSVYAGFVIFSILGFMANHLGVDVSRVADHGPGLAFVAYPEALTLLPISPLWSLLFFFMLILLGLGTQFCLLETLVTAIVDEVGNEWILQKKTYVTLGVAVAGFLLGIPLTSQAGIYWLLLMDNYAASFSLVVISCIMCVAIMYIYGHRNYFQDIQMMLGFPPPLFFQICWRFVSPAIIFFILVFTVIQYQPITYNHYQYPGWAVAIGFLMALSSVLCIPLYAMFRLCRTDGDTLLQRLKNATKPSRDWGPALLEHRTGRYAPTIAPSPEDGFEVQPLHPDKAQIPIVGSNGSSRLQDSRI
Type: cell-based
Method in brief: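 IC50 values derive from four-parameter logistic curves fitted to dose-response data. Uptake of [14C]-glycine measured in scintillation proximity format.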

| IC50 | Structure (SMILES) |
| --- | --- |
| < 100 nM | CCS(=O)(=O)c1ccc(O[C@@H](C)C(F)(F)F)c(C(=O)N2Cc3cn(-c4cc(F)ccc4F)nc3C2)c1 [Example 125, 2-(2 5-Difluorophenyl)-5-[5-(ethanesulfonyl)-2-{[(2S)-1 1 1-trifluoropropan-2-yl]oxy}benzoyl]-2H 4H 5H 6H-pyrrolo[3,4-c]pyrazole] |
| < 100 nM | CCS(=O)(=O)c1ccc(O[C@@H](C)C(F)(F)F)c(C(=O)N2Cc3cn(-c4cc(C)ccc4F)nc3C2)c1 [Example 126, 5-[5-(Ethanesulfonyl)-2-{[(2S)-1 1 1-trifluoropropan-2-yl]oxy}benzoyl]-2-(2-fluoro-5-methylphenyl)-2H 4H 5H 6H-pyrrolo[3,4-c]pyrazole] |
| < 100 nM | CC(C)Oc1ccc(S(C)(=O)=O)cc1C(=O)N1Cc2cn(-c3cc(F)ccc3F)nc2C1 [Example 129, 2-(2 5-Difluorophenyl)-5-[5-methanesulfonyl-2-(propan-2-yloxy)benzoyl]-2H 4H 5H 6H-pyrrolo[3,4-c]pyrazole] |
| < 100 nM | CCc1cc(-n2cc3c(n2)CN(C(=O)c2cc(S(C)(=O)=O)ccc2N2CCC(F)(F)CC2)C3)ccn1 [Example 131, 4-{5-[2-(4 4-Difluoropiperidin-1-yl)-5-methanesulfonylbenzoyl]-2H 4H 5H 6H-pyrrolo[3,4-c]pyrazol-2-yl}-2-ethylpyridine] |
| < 100 nM | CCc1cc(-n2cc3c(n2)CN(C(=O)c2cc(S(=O)(=O)CC)ccc2N2CCC(F)(F)CC2)C3)ccn1 [Example 132, 4-{5-[2-(4 4-Difluoropiperidin-1-yl)-5-(ethanesulfonyl)benzoyl]-2H 4H 5H 6H-pyrrolo[3,4-c]pyrazol-2-yl}-2-ethylpyridine] |
| < 100 nM | CCc1cc(-n2cc3c(n2)CN(C(=O)c2cc(S(C)(=O)=O)ccc2O[C@@H](C)C(F)(F)F)C3)ccn1 [Example 133, 2-Ethyl-4-[5-(5-methanesulfonyl-2-{[(2S)-1 1 1-trifluoropropan-2-yl]oxy}benzoyl)-2H 4H 5H 6H-pyrrolo[3,4-c]pyrazol-2-yl]pyridine] |
| < 100 nM | CCc1cc(-n2cc3c(n2)CN(C(=O)c2cc(S(=O)(=O)CC)ccc2O[C@@H](C)C(F)(F)F)C3)ccn1 [Example 134, 4-{5-[5-(Ethanesulfonyl)-2-{[(2S)-1 1 1-trifluoropropan-2-yl]oxy}benzoyl]-2H 4H 5H 6H-pyrrolo[3,4-c]pyrazol-2-yl}-2-ethylpyridine] |
| < 100 nM | CCc1cc(-n2cc3c(n2)CN(C(=O)c2cc(S(C)(=O)=O)ccc2-c2cccc(F)c2)C3)ccn1 [Example 143, 2-Ethyl-4-{5-[2-(3-fluorophenyl)-5-methanesulfonylbenzoyl]-2H 4H 5H 6H-pyrrolo[3,4-c]pyrazol-2-yl}pyridine] |
| > 10000 nM | C[C@H](Oc1ccc(S(=O)(=O)CC2CC2)cc1C(=O)N1Cc2cn(-c3ccccc3)nc2C1)C(F)(F)F [Example 144, 5-(5-Cyclopropylmethanesulfonyl-2-{[(2S)-1 1 1-trifluoropropan-2-yl]oxy}benzoyl)-2-phenyl-2H 4H 5H 6H-pyrrolo[3,4-c]pyrazole] |
| 1000 to 10000 nM | Cc1cccc(-n2cc3c(n2)CN(C(=O)c2cc(S(=O)(=O)CC4CC4)ccc2O[C@@H](C)C(F)(F)F)C3)c1 [Example 145, 5-(5-Cyclopropylmethanesulfonyl-2-{[(2S)-1 1 1-trifluoropropan-2-yl]oxy}benzoyl)-2-(3-methylphenyl)-2H 4H 5H 6H-pyrrolo[3,4-c]pyrazole] |
| < 100 nM | C[C@H](Oc1ccc(S(C)(=O)=O)cc1C(=O)N1Cc2cn(-c3cccc(Cl)c3F)nc2C1)C(F)(F)F [Example 146, 2-(3-Chloro-2-fluorophenyl)-5-(5-methanesulfonyl-2-{[(2S)-1 1 1-trifluoropropan-2-yl]oxy}benzoyl)-2H 4H 5H 6H-pyrrolo[3,4-c]pyrazole] |
| < 100 nM | C[C@H](Oc1ccc(S(C)(=O)=O)cc1C(=O)N1Cc2cn(-c3cccc(F)c3Cl)nc2C1)C(F)(F)F [Example 147, 2-(2-Chloro-3-fluorophenyl)-5-(5-methanesulfonyl-2-{[(2S)-1 1 1-trifluoropropan-2-yl]oxy}benzoyl)-2H 4H 5H 6H-pyrrolo[3,4-c]pyrazole] |
| < 100 nM | CCS(=O)(=O)c1ccc(O[C@@H](C)C(F)(F)F)c(C(=O)N2Cc3cn(-c4cccc(Cl)c4F)nc3C2)c1 [Example 150, 2-(3-Chloro-2-fluorophenyl)-5-[5-(ethanesulfonyl)-2-{[(2S)-1 1 1-trifluoropropan-2-yl]oxy}benzoyl]-2H 4H 5H 6H-pyrrolo[3,4-c]pyrazole] |

Further lines, the compound ahead of its results:

| Structure (SMILES) | IC50 |
| --- | --- |
| Cc1ccc(F)c(-n2cc3c(n2)CN(C(=O)c2cc(S(C)(=O)=O)ccc2N2CCC(F)(F)CC2)C3)c1 [Example 124, 4 4-Difluoro-1-{2-[2-(2-fluoro-5-methylphenyl)-2H 4H 5H 6H-pyrrolo[3,4-c]pyrazole-5-carbonyl]-4-methanesulfonylphenyl}piperidine] | < 100 nM |
| CCS(=O)(=O)c1ccc(N2CCC(F)(F)CC2)c(C(=O)N2Cc3cn(-c4cc(F)ccc4F)nc3C2)c1 [Example 127, 1-{2-[2-(2 5-Difluorophenyl)-2H 4H 5H 6H-pyrrolo[3,4-c]pyrazole-5-carbonyl]-4-(ethanesulfonyl)phenyl}-4 4-difluoropiperidine] | < 100 nM |
| CCS(=O)(=O)c1ccc(N2CCC(F)(F)CC2)c(C(=O)N2Cc3cn(-c4cc(C)ccc4F)nc3C2)c1 [Example 128, 1-[4-(Ethanesulfonyl)-2-[2-(2-fluoro-5-methylphenyl)-2H 4H 5H 6H-pyrrolo[3,4-c]pyrazole-5-carbonyl]phenyl]-4 4-difluoropiperidine] | < 100 nM |
| Cc1ccc(F)c(-n2cc3c(n2)CN(C(=O)c2cc(S(C)(=O)=O)ccc2OC(C)C)C3)c1 [Example 130, 2-(2-Fluoro-5-methylphenyl)-5-[5-methanesulfonyl-2-(propan-2-yloxy)benzoyl]-2H 4H 5H 6H-pyrrolo[3,4-c]pyrazole] | < 100 nM |
| CCS(=O)(=O)c1ccc(N2CCC(F)(F)CC2)c(C(=O)N2Cc3cn(-c4ccc(F)cn4)nc3C2)c1 [Example 135, 2-{5-[2-(4 4-Difluoropiperidin-1-yl)-5-(ethanesulfonyl)benzoyl]-2H 4H 5H 6H-pyrrolo[3,4-c]pyrazol-2-yl}-5-fluoropyridine] | < 100 nM |
| Cc1ccc(F)c(-n2cc3c(n2)CN(C(=O)c2cc(S(C)(=O)=O)ccc2OCC2CC2)C3)c1 [Example 136, 5-[2-(Cyclopropylmethoxy)-5-methanesulfonylbenzoyl]-2-(2-fluoro-5-methylphenyl)-2H 4H 5H 6H-pyrrolo[3,4-c]pyrazole] | < 100 nM |
| CS(=O)(=O)c1ccc(OCC2CC2)c(C(=O)N2Cc3cn(-c4cc(F)ccc4F)nc3C2)c1 [Example 137, 5-[2-(Cyclopropylmethoxy)-5-methanesulfonylbenzoyl]-2-(2 5-difluorophenyl)-2H 4H 5H 6H-pyrrolo[3,4-c]pyrazole] | < 100 nM |
| CS(=O)(=O)c1ccc(OCC2CC2)c(C(=O)N2Cc3cn(-c4cccc(C(F)(F)F)c4F)nc3C2)c1 [Example 138, 5-[2-(Cyclopropylmethoxy)-5-methanesulfonylbenzoyl]-2-[2-fluoro-3-(trifluoromethyl)phenyl]-2H 4H 5H 6H-pyrrolo[3,4-c]pyrazole] | < 100 nM |
| Cc1cccc(-n2cc3c(n2)CN(C(=O)c2cc(S(C)(=O)=O)ccc2OCC2CC2)C3)c1F [Example 139, 5-[2-(Cyclopropylmethoxy)-5-methanesulfonylbenzoyl]-2-(2-fluoro-3-methylphenyl)-2H 4H 5H 6H-pyrrolo[3,4-c]pyrazole] | < 100 nM |
| Cc1cccc(-n2cc3c(n2)CN(C(=O)c2cc(S(C)(=O)=O)ccc2OCC2CC2)C3)c1 [Example 140, 5-[2-(Cyclopropylmethoxy)-5-methanesulfonylbenzoyl]-2-(3-methylphenyl)-2H 4H 5H 6H-pyrrolo[3,4-c]pyrazole] | < 100 nM |
| CS(=O)(=O)c1ccc(-c2cccc(F)c2)c(C(=O)N2Cc3cn(-c4cccnc4)nc3C2)c1 [Example 141, 3-{5-[2-(3-Fluorophenyl)-5-methanesulfonylbenzoyl]-2H 4H 5H 6H-pyrrolo[3,4-c]pyrazol-2-yl}pyridine] | < 100 nM |
| CS(=O)(=O)c1ccc(-c2cccc(F)c2)c(C(=O)N2Cc3cn(-c4ccncc4)nc3C2)c1 [Example 142, 4-{5-[2-(3-Fluorophenyl)-5-methanesulfonylbenzoyl]-2H 4H 5H 6H-pyrrolo[3,4-c]pyrazol-2-yl}pyridine] | < 100 nM |
| CC(C)Oc1ccc(S(C)(=O)=O)cc1C(=O)N1Cc2cn(-c3cccc(Cl)c3F)nc2C1 [Example 148, 2-(3-Chloro-2-fluorophenyl)-5-[5-methanesulfonyl-2-(propan-2-yloxy)benzoyl]-2H 4H 5H 6H-pyrrolo[3,4-c]pyrazole] | < 100 nM |
| CC(C)Oc1ccc(S(C)(=O)=O)cc1C(=O)N1Cc2cn(-c3cccc(F)c3Cl)nc2C1 [Example 149, 2-(2-Chloro-3-fluorophenyl)-5-[5-methanesulfonyl-2-(propan-2-yloxy)benzoyl]-2H 4H 5H 6H-pyrrolo[3,4-c]pyrazole] | < 100 nM |
